Data: ChEMBL document CHEMBL5465560, “Selectivity Literature for EUbOPEN Chemogenomic Library” (2024)
One block for each compound: values may come before it.

How the values were obtained:
[1] = molecular target: T1, Serine/threonine-protein kinase DCLK1 (Homo sapiens) (UniProt O15075); experiment: Selectivity interaction (KinomeScan (DiscoverX)) EUB0000618a DCLK1; details: at 10 µM
T1 sequence (whole entry): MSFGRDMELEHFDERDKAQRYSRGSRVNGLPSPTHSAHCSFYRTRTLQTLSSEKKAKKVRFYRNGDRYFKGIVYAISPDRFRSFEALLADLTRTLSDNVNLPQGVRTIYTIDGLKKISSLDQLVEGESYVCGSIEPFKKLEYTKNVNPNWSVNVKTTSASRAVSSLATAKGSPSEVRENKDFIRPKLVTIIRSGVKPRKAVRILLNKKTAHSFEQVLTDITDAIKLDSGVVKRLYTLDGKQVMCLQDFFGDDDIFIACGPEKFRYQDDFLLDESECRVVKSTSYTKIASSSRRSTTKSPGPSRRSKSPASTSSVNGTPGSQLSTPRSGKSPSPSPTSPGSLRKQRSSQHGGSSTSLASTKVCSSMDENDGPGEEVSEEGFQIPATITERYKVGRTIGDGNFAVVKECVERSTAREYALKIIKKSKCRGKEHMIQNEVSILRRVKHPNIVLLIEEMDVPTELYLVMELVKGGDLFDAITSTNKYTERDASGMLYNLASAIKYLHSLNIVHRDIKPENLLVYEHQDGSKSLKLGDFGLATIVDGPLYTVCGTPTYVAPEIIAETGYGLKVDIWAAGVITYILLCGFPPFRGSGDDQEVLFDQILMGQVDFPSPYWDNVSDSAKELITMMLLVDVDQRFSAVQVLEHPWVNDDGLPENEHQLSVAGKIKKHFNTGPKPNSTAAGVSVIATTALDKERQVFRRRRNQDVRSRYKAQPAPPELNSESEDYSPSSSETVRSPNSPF

[2] = molecular target: Protein kinase C gamma type (Homo sapiens) (UniProt P05129); experiment: Selectivity interaction (Upstate Kinase Profiler service (Millipore)) EUB0000056c PRKCG; details: at 1 µM
[3] = molecular target: Insulin-like growth factor 1 receptor (Homo sapiens, UniProt P08069); experiment: Selectivity interaction (Kinase panel (Invitrogen)) EUB0000639a IGF1R; details: at 200 nM
Sequence of Insulin-like growth factor 1 receptor (P08069 31-736 limits assumed): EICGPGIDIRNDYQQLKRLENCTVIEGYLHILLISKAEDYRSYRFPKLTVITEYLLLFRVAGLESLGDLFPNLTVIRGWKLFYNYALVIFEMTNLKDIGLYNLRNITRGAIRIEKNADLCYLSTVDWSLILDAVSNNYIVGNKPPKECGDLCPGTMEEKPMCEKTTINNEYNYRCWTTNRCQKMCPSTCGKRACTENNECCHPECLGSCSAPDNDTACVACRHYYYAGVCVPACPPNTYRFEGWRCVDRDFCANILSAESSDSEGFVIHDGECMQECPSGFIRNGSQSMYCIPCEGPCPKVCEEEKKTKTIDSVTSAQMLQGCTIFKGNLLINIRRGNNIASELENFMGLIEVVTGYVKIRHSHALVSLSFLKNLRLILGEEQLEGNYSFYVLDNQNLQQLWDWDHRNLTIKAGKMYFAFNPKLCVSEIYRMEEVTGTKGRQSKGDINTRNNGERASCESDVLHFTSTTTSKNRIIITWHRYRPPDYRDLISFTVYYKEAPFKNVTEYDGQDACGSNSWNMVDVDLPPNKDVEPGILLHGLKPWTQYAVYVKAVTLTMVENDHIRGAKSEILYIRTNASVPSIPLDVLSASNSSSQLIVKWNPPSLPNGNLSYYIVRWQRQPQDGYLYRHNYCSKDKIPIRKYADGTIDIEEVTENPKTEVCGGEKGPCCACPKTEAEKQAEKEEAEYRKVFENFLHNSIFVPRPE
Sequence of Insulin-like growth factor 1 receptor (P08069 741-1367 limits assumed): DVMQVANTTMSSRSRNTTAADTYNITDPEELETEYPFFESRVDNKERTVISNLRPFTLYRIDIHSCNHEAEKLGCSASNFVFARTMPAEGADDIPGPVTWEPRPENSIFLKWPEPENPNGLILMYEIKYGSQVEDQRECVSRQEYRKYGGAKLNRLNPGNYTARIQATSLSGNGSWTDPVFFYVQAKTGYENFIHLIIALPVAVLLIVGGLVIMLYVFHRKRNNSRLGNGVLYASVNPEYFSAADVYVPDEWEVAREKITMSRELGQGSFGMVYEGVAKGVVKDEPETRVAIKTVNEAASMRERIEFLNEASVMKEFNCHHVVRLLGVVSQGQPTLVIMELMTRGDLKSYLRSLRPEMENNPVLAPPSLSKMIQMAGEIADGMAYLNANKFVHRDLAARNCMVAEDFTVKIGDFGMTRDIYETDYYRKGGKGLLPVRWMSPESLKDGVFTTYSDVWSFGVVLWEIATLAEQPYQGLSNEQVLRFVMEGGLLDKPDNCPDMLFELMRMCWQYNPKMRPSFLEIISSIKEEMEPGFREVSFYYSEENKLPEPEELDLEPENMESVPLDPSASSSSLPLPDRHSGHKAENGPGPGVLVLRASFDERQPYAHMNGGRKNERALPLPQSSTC

[4] = molecular target: T2, Mitogen-activated protein kinase kinase kinase 6 (Homo sapiens) (UniProt O95382); experiment: Selectivity interaction (KinomeScan (DiscoverX)) EUB0001049a MAP3K6; details: at 1 µM
T2 sequence (whole entry): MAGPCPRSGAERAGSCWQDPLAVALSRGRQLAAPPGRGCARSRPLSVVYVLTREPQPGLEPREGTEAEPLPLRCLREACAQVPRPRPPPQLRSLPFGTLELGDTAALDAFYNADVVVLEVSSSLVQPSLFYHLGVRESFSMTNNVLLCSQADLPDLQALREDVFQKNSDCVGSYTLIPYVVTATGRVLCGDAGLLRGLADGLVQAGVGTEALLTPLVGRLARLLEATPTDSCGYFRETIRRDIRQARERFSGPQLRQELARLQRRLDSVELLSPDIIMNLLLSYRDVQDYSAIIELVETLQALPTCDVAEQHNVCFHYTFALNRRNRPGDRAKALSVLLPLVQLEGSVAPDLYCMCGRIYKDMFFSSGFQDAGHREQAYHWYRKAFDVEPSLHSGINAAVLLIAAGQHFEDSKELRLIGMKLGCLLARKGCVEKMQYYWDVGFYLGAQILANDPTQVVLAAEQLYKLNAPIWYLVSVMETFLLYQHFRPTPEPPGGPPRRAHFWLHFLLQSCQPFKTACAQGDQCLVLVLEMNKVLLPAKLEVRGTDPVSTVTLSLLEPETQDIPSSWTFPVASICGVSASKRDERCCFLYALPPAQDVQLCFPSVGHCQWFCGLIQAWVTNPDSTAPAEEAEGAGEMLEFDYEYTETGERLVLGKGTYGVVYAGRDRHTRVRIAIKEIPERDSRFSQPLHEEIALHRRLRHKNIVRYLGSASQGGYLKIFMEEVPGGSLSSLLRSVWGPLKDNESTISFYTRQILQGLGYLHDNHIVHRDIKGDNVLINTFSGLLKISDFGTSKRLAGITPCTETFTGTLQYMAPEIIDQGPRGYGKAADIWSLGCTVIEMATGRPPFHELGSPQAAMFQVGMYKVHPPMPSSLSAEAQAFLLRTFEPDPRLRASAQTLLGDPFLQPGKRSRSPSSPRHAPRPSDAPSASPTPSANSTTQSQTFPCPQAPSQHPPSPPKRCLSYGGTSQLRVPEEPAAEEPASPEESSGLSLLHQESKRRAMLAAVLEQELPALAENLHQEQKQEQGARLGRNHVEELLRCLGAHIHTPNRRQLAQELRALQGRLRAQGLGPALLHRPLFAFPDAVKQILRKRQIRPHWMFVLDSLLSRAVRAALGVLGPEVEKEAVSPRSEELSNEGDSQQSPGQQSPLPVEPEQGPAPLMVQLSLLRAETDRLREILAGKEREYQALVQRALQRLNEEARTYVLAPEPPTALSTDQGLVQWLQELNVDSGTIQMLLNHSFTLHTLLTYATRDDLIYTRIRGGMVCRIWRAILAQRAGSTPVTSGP

[5] = molecular target: T3, Serine/threonine-protein kinase Sgk1 (Homo sapiens) (UniProt O00141); experiment: Selectivity interaction (Kinase panel (Z-LYTE Assay)) EUB0001632a SGK1; details: at 10 µM
T3 sequence (whole entry): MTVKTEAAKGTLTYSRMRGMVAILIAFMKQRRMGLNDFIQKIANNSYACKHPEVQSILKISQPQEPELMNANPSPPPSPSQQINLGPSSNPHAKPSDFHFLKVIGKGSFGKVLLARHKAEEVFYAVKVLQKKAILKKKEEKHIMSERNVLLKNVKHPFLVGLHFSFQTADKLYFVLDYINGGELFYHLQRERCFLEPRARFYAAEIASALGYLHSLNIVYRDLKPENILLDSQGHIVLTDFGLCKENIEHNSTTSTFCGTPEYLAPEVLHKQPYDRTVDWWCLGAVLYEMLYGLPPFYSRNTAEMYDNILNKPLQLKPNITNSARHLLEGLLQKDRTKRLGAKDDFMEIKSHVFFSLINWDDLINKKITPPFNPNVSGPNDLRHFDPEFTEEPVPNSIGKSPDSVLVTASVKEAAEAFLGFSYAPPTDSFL

% of inhibition [2]: 17%
Compound: Cc1ccc(-c2ccc3c(ccc4sc5c(c43)NC[C@@H](C)NC5=O)n2)cn1

% of inhibition [3]: 7.84%
Compound: CC[C@@H]1[C@H](F)C(=O)N[C@@H]1COc1nccc2cc(C(N)=O)c(OC)cc12 [ZIMLOVISERTIB]

% of control [5]: 28%
Compound: Cn1cc(-n2cnc3c(NCc4nc5cc(Cl)c(Cl)cc5[nH]4)nc(N4CCOCC4)nc32)cn1

Second part, the compound before the results:

Compound: O[C@H]1CC[C@H](Nc2ncc3nc(Nc4c(F)cc(F)cc4F)n([C@H]4CCOC4)c3n2)CC1
% of control [1]: 81%

Compound: COc1cc(Nc2nc(C)cc(-c3cnn4nc(OC)ccc34)n2)cc(C(F)(F)F)c1
% of control [4]: 66%
